In PubChem BioAssay (NCI):
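GI50: concentration for 50% inhibition of growth. TGI denotes the concentration required for complete inhibition of growth.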

Assays:
Experiment in all cases: NCI-60 cell line screen, 384-well format
[1] = system: DU-145 prostate
[2] = system: PC-3 prostate
[3] = system: K-562 leukemia
[4] = system: OVCAR-5 ovarian
[5] = system: NCI-H226 lung
[6] = system: IGROV1 ovarian
[7] = system: HOP-92 NSCLC
[8] = system: SNB-75 CNS
[9] = system: KM12 colon
[10] = system: OVCAR-3 ovarian
[11] = system: NCI-H522 lung
[12] = system: OVCAR-4 ovarian
[13] = system: NCI-H322M lung

In the case of Cc1nc(NC(=O)N2CCC[C@H]2C(N)=O)sc1-c1ccnc(C(C)(C)C(F)(F)F)c1, the GI50 [1] is reported as 10.8 µM, the TGI [1] is reported as 33.7 µM and the GI50 [2] is reported as 5.73 µM. For the same compound, the TGI [2] was 25.4 µM, the GI50 [3] was 15.6 µM and the TGI [3] was 35.1 µM. It also gave a GI50 [4] of 5.5 µM, a TGI [4] of 37.4 µM and a GI50 [5] of 8.88 µM. The TGI [5] was 32.5 µM, the GI50 [6] was 0.118 µM and the TGI [6] was 1.34 µM. It also gave a GI50 [7] of 3.09 µM, a TGI [7] of 20.6 µM and a GI50 [8] of 1.17 µM. For the same compound, the TGI [8] was 8.53 µM, the GI50 [9] was 25.8 µM and the TGI [9] was over 92.8 µM. The GI50 [10] was 6.07 µM, the TGI [10] was 27.8 µM and the GI50 [11] was 4.78 µM. It also gave a TGI [11] of 23.8 µM, a GI50 [12] of 7.73 µM and a TGI [12] of 40.7 µM. The GI50 [13] was 4.6 µM and the TGI [13] was 26.6 µM.
Work on CC(=O)N1CC(F)(F)c2c(Sc3ncc(N4CCC5(CC4)COC[C@H]5N)nc3N)cccc21 yielded a GI50 [1] of 19.1 µM, a TGI [1] of 63.1 µM and a GI50 [2] of 13.4 µM. It also gave a TGI [2] of 48.6 µM, a GI50 [3] of 0.774 µM and a TGI [3] of 13.9 µM. For the same compound, the GI50 [4] was 18.1 µM, the TGI [4] was 57.3 µM and the GI50 [5] was 2.48 µM. The TGI [5] was 41.9 µM, the GI50 [6] was 6.38 µM and the TGI [6] was 24.5 µM. For the same compound, the GI50 [7] was 2.17 µM, the TGI [7] was 14.2 µM and the GI50 [8] was 5.83 µM. It also gave a TGI [8] of 29.1 µM, a GI50 [9] of 2.97 µM and a TGI [9] of 13.5 µM. It also gave a GI50 [10] of 14.1 µM, a TGI [10] of 30.7 µM and a GI50 [11] of 1.56 µM. The TGI [11] was 14.5 µM, the GI50 [12] was 9.78 µM and the TGI [12] was 35.9 µM. For the same compound, the GI50 [13] was 2.08 µM and the TGI [13] was 27.7 µM.
